“And” between values parts separate entries of the source, which are not always exact repeats. Identical values can stand only once. Marks after values point to notes of the source that are not given here.
What was measured:
[1] = Antibiotic bone assay (LC/MS/MS): tigecycline concentration in incurred rat bone; type: in vivo; details: for concentration at 4 h: rat, femoral bone (pooled, ground), 3 mg/kg
Experimental: Incurred rat bone was harvested and prepared from rats administered an antibiotic. Two different groups of incurred rat bone were prepared. Group A (n=12) represented bone from rats administered a single dose of tigecycline and Group B (n=19) represented bone from rats administered multiple doses of tigecycline. Group A rats were intravenously administered a single dose of tigecycline at 3 mg/kg. At 4 hours post-dose, the rats were euthanized and the femoral bones were harvested. Group B rats were intravenously administered 3 mg/kg of ^14C-tigecycline, once daily, for 3 days. At 4 hours post-dose, on day 3, the rats were euthanized and the femoral bones were harvested.
Preparation of incurred rat bone sample: To prepare the bone for extraction, two femoral bones from each rat in each group were collected. Femoral bones were cleaned with a saline solution to remove blood and bone marrow. The bones were air-dried and combined to form two pooled samples of incurred rat bone, Group A and Group B. The femoral rat bone pools were ground for approximately 2 minutes in an industrial blender to produce bone particles <1 mm in diameter. The ground, pooled bone sample for each group was stored at −70° C. for later analysis.
Incurred rat bone (IncRB) QC sample: Approximately 0.1 g of IncRB (Group A), which was stored at −70° and thawed, was weighed and dissolved in 1.0 ml of the extraction solvent to create a mixture of bone and solvent. Then, 50 μl of extraction solvent were added to match the volume of working standard solutions added to RBCtrl calibrators or QC samples. For IncHB QC sample, the procedure is similar to rat bone except for using a human incurred bone sample and adding L-ascorbic acid solution prior to adding extraction solvent.
Approximately 100 mg of prepared IncRB and RBCtrl samples (or human control bone or incurred human bone) were accurately weighed and placed into 17×100 mm polypropylene tubes. One hundred twenty μL of stabilizing agent (100 mM ascorbic acid) was added to human bone samples (For the rat bone assay, it was proven that autosampler stability was improved by adding ascorbic acid). One ml of extraction solvent, 50 μl of each tigecycline working standard solution (or 50 μl of methanol for study samples) and 40 μl of working internal standard solution (5000 ng/ml [t-butyl-d9]-tigecycline in methanol) were added to each tube. All sample tubes were vortexed for about 60 seconds. A tissue homogenizing probe was introduced into the mixture (small particles of prepared bone samples in extraction solvent) to further break up the bone particles. The homogenizing probe was operated at a setting of 4 to 5 (˜10,000 rpm) for about 2 minutes until bone particles in the mixture became a cloudy, white homogenous suspension. The probe was removed from the suspension and cleaned between each sample preparation by immersion in 2 ml of water, operating for 30 to 60 seconds, immersion in 2 ml of methanol, operating for 30 to 60 seconds, and wiping dry. Each sample tube containing bone suspension was centrifuged at 3000 rpm, at room temperature, for about 5 minutes. The supernatant (200 μl) was removed and transferred to a 250-μl conical low volume polypropylene autosampler vial and recentrifuged for another 5 minutes before loading into the HPLC autosampler. A 20 μl aliquot of the supernatant was injected onto the LC/MS/MS for tigecycline determination.
Liquid chromatography separation procedures were carried out on a 50×2.0 mm (I.D., 3 μm) HPLC analytical column with a pre-column in-line solvent filer (2.0 μm PEEK filter) and a LC/MS switching valve. PEEK tubing ( 1/16 in.×0.005 in.) connected the separation module, analytical column, LC/MS switching valve, and mass spectrometer. The separation module included a refrigerated autosampler, an in-line degasser, and a quaternary solvent delivery system. The analytical column temperature was approximately 20° C.; autosampler temperature was maintained at 4° C. […]

[2] = 54-hour autosampler stability of extracted tigecycline from incurred human bone with ascorbic acid; type: physicochemical; details: ascorbic acid added
Experimental: Stability tests for tigecycline in IncRB reference QC samples or incHB QC samples were conducted in 4 cycles of freeze/thaw for IncRB QC and (3 cycles for IncHB QC of −70° C./22° C.) and in standard bench top (22° C.) stability (4 hours for rat bone and 6 hours for human bone) tests. These tests occurred during sequential extraction from run 1 through run 3. Bench top stability of IncRB reference QC samples (4 hours at room temperature) and incurred human bone sample (6 hours at room temperature), and extracted tigecycline from the IncRB and incurred human reference QC samples in the autosampler at 4° C. were evaluated during the method validation. Autosampler stability of tigecycline in IncRB Group B sample (^14C) was employed as the sample pool because aliquots from IncRB Group A were exhausted from prior testing. Results were plotted as the peak area ratio against time. The 54-hour autosampler stability of incurred human bone was performed by comparing extracted samples injected immediate after extraction (baseline) with the same set of extracted samples re-injected after 54 hours of storage at 4° C., regressed with a standard curve injected immediately after extraction (baseline).

in vivo = details: rat
Experimental: Absolute extraction recovery (AbsER): Bone is a heterogeneous tissue and, unlike with a plasma or urine method validation, the extraction recovery cannot be determined with a drug spiked rat bone QC sample. Therefore, it is necessary to measure a virtual known amount of drug in an incurred rat bone sample to determine the absolute extraction recovery. Using combusted IncRB samples from Group B (rats administered radio labeled ^14C-tigecycline), the amount of labeled drug in bone was measured using a liquid scintillation counter. Four aliquots of IncRB Group B (0.1 grams) were accurately weighed, placed into combustion cones, and allowed to air dry for approximately 3 days. These 4 samples were then oxidized in a Model 307/Oximate 80 sample oxidizer, using Carbosorb® E (7 ml) as a trapping agent and PermalFluor® ET (10 ml) as a scintillant. […] The oxidized samples were counted in a Packard (Perkin Elmer) liquid scintillation counter (LSC) using a toluene standard curve. The ng-equiv/ml concentrations were calculated using specific activity of the dosing solution.
In parallel, five aliquots of IncRB Group B (0.1 gram) were weighed. […]
The absolute extraction recovery was determined using the following equation: […]
[total amount of tigecycline per gram of bone (Group B, determined by LC/MS/MS)]/[total amount of tigecycline per gram of bone (Group B, after combustion as determined by LSC)]×100

SMILES: CN(C)c1cc(NC(=O)CNC(C)(C)C)c(O)c2c1C[C@H]1C[C@H]3[C@H](N(C)C)C(O)=C(C(N)=O)C(=O)[C@@]3(O)C(O)=C1C2=O [tigecycline, Tigecycline]
- Tigecycline concentration in pooled incurred rat bone, Mean ± SD ([1]; Group A, single i.v. dose 3 mg/kg, Day 1, 4 hour, femoral bone pool of 12 rats, 5 replicates): 1048 ± 88^b ng/g
- Tigecycline concentration in pooled incurred rat bone, Mean ± SD ([1]; Group B, multiple dose 3 mg/kg i.v. 14C-tigecycline once daily for 3 days, Day 3, 4 hour, pool of 19 rats, 5 replicates): 3192 ng/g and 3192 ± 93^b ng/g
- concentration at 4 h ([1]; intravenous, Group A, single dose 3 mg/kg, Day 1, 4 hour, measured concentration divided by 0.771, read-out: Corrected Mean Conc. in rat bone): 1360 ng/g
- concentration at 4 h ([1]; intravenous, Group B, multiple dose 3 mg/kg 14C-tigecycline, Day 3, 4 hour, measured concentration divided by 0.771, read-out: Corrected Mean Conc. in rat bone): 4140 ng/g
- concentration at 4 h ([1]; intravenous, IncRB Group B extract used for the bioassay, read-out: Concentration of tigecycline in extracted rat bone sample as determined by LC/MS): 3400 ng/g
- concentration at 4 h ([1]; iv, Group A, single i.v. dose 3 mg/kg, Day 1, 4 hour, femoral bone pool of 12 rats, 5 replicates, read-out: Tigecycline concentration in pooled incurred rat bone, Mean ± SD): 1050 ng/g
- IncRB QC sample concentration (incurred rat bone Group A) ([1]; single i.v. 3 mg/kg, 4 hours post-dose, nominal value = mean of 3-day global inter-day validation (n = 15)): 987 ng/g and 987^a ng/g
- % Difference (54 hours vs initial) ([2]; 54 hours at 4° C.): −0.7%
- Initial Concentration immediately after extraction (replicates) ([2]; incurred human bone): 261 and 258 and 270 and 269 and 218
- Re-injected sample concentration after 54-hour at 4° C. (replicates) ([2]; incurred human bone): 288 and 250 and 227 and 277 and 223
- Initial Concentration immediately after extraction, Mean ([2]; n = 5, incurred human bone): 255
- Re-injected sample concentration after 54-hour at 4° C., Mean ([2]; n = 5, incurred human bone): 253
- concentration at 4 h (in vivo): 3190 ng/g
- Measured conc. (in vivo; 4 h): 4137^a ng-equivalent/g of bone

Reference: US20070259439A1, “Determination of antibiotic concentration in bone” (Wyeth, priority 2006, published 2007)
